pIC50: −log10 of the molar value.
What was measured:
Type in all cases: biochemical
[1] = target: Human KLK1 (Homo sapiens (Human), UniProt P06870); experiment: Determination of the IC50 for KLK1; conditions: 25° C., fluorogenic substrate H-DVal-Leu-Arg-AFC
Procedure: Determination of the IC50 for KLK1
(§1) Human KLK1 (Callbiochem) was incubated at 25° C. with the fluorogenic substrate H-DVal-Leu-Arg-AFC and various concentrations of the test compound. Residual enzyme activity (initial rate of reaction) was determined by measuring the change in […] at 410 nm and the IC50 value for the test compound was determined.

[2] = target: Human FXIa (Homo sapiens (Human), UniProt P03951); experiment: Determination of the % inhibition for FXIa; conditions: 40 μM test compound, 25° C., substrate Z-Gly-Pro-Arg-AFC
Sequence of Human FXIa (P03951 388-625): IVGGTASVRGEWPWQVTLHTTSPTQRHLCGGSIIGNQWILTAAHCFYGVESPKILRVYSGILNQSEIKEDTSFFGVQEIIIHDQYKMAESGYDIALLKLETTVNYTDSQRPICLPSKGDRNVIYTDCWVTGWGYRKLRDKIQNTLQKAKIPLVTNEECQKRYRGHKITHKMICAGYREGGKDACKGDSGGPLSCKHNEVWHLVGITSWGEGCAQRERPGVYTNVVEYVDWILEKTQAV
Sequence of Human FXIa (P03951 19-387 partner): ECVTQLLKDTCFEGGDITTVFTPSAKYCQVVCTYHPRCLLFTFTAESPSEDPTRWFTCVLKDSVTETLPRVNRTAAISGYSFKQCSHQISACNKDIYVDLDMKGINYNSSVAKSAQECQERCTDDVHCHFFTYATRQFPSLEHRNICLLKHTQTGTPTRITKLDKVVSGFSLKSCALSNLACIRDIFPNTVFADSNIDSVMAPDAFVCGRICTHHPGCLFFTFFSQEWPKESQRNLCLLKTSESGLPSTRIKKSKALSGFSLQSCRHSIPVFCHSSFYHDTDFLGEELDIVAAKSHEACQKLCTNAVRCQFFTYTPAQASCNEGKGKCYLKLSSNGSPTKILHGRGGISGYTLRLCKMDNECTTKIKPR
Procedure: Determination of the % Inhibition for FXIa
Human FXIa (Enzyme Research Laboratories) was incubated at 25° C. with the fluorogenic substrate Z-Gly-Pro-Arg-AFC and 40 μM of the test compound. Residual enzyme activity (initial rate of reaction) was determined by measuring the change in […].

[3] = target: Human plasma kallikrein (Homo sapiens (Human), UniProt P03952); experiment: Determination of the IC50 for plasma kallikrein; conditions: 25° C., fluorogenic substrate H-DPro-Phe-Arg-AFC; read-out: IC50 (human PKaI)
Sequence of Human plasma kallikrein (P03952 391-638): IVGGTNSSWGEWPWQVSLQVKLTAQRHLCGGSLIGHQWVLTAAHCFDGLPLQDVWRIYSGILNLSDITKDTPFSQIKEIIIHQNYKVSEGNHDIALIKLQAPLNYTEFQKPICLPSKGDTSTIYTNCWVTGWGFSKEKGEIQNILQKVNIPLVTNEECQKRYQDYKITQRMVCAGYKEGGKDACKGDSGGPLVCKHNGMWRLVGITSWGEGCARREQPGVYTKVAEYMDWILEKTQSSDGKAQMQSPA
Sequence of Human plasma kallikrein (P03952 20-390 partner): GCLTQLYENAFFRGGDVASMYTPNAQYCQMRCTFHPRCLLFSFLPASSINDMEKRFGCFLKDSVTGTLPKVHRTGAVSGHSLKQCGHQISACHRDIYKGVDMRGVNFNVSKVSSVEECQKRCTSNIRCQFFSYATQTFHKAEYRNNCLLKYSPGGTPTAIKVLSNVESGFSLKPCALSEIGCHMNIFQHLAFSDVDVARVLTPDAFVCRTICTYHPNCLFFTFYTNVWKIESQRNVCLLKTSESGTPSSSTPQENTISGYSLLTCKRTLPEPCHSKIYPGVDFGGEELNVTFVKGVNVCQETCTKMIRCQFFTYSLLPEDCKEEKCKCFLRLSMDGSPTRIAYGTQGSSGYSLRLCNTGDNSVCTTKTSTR
Procedure: Determination of the IC50 for Plasma Kallikrein
as §1, with “plasma kallikrein (Protogen)” for “KLK1 (Callbiochem)”, “H-DPro-Phe-Arg-AFC” for “H-DVal-Leu-Arg-AFC”

Sequence of Human KLK1 (P06870 25-262): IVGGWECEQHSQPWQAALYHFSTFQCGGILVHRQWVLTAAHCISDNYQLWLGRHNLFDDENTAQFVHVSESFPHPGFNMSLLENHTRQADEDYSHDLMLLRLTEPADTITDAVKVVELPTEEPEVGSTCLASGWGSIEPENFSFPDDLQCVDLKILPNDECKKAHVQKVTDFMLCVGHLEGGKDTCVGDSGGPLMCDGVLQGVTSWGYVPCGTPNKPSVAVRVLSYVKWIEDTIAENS

Row | Structure (SMILES) | pIC50 [1] | % Inhibition @ 40 μM (human FXIa) [2] [%] | pIC50 [3] | inhibition at 40 µM [2] [%]
1 | NC(=O)c1cccc(CNC(=O)c2cn(Cc3ccc(Cn4ccccc4=O)cc3)nc2C2CC2)c1 [Example 49, N-[(3-carbamoylphenyl)methyl]-3-cyclopropyl-1-({4-[(2-oxopyridin-1-yl)methyl]phenyl}methyl)pyrazole-4-carboxamide] | < 5.00 | 0 | 5.26 | 
2 | COc1cccc(CNC(=O)c2cn(Cc3ccc(Cn4ccccc4=O)cc3)nc2C2CC2)c1F [Example 52, 3-cyclopropyl-N-[(2-fluoro-3-methoxyphenyl)methyl]-1-({4-[(2-oxopyridin-1-yl)methyl]phenyl}methyl)pyrazole-4-carboxamide] | < 4.40 | 1 | 7.63 | 
3 | COCc1nn(Cc2ccc(Cn3ccccc3=O)cc2)cc1C(=O)NCc1c(OC)ccc(OC)c1F [Example 54, N-[(2-fluoro-3,6-dimethoxyphenyl)methyl]-3-(methoxymethyl)-1-({4-[(2-oxopyridin-1-yl)methyl]phenyl}methyl)pyrazole-4-carboxamide] | < 4.40 |  | 8.68 | 17
4 | Nc1nn(Cc2ccc(Cn3ccccc3=O)cc2)cc1C(=O)NCc1ccc(OC(F)(F)F)cc1 [Example 58, 3-amino-1-({4-[(2-oxopyridin-1-yl)methyl]phenyl}methyl)-N-{[4-(trifluoromethoxy)phenyl]methyl}pyrazole-4-carboxamide] | < 5.00 | 0 | 5.24 | 
5 | COc1cccc(CNC(=O)c2cn(Cc3ccc(Cn4ccccc4=O)cc3)nc2N(C)C)c1F [Example 59, 3-(dimethylamino)-N-[(2-fluoro-3-methoxyphenyl)methyl]-1-({4-[(2-oxopyridin-1-yl)methyl]phenyl}methyl)pyrazole-4-carboxamide] | < 5.00 |  | 7.13 | 0
6 | COCc1nn(Cc2ccc(Cn3ccccc3=O)cc2)cc1C(=O)NCc1ccccc1F [Example 62, N-[(2-fluorophenyl)methyl]-3-(methoxymethyl)-1-({4-[(2-oxopyridin-1-yl)methyl]phenyl}methyl)pyrazole-4-carboxamide] | < 5.00 |  | 6.24 | 0
7 | COCc1nn(Cc2ccc(Cn3ccccc3=O)cc2)cc1C(=O)NCc1ccccc1C(F)(F)F [Example 63, 3-(methoxymethyl)-1-({4-[(2-oxopyridin-1-yl)methyl]phenyl}methyl)-N-{[2-(trifluoromethyl)phenyl]methyl}pyrazole-4-carboxamide] | < 5.00 |  | 6.47 | 0
8 | COCc1nn(Cc2ccc(Cn3ccccc3=O)cc2)cc1C(=O)NCc1cc(OC)ccc1F [Example 64, N-[(2-fluoro-5-methoxyphenyl)methyl]-3-(methoxymethyl)-1-({4-[(2-oxopyridin-1-yl)methyl]phenyl}methyl)pyrazole-4-carboxamide] | < 5.00 |  | 7.45 | 0
9 | COCc1nn(Cc2ccc(Cn3ccccc3=O)cc2)cc1C(=O)NCc1ccc(C)cc1F [Example 65, N-[(2-fluoro-4-methylphenyl)methyl]-3-(methoxymethyl)-1-({4-[(2-oxopyridin-1-yl)methyl]phenyl}methyl)pyrazole-4-carboxamide] | < 5.00 |  | 7.36 | 0
10 | COCc1nn(Cc2ccc(Cn3ccccc3=O)cc2)cc1C(=O)NCc1cc(Cl)cc(OC)c1 [Example 67, N-[(3-chloro-5-methoxyphenyl)methyl]-3-(methoxymethyl)-1-({4-[(2-oxopyridin-1-yl)methyl]phenyl}methyl)pyrazole-4-carboxamide] | < 5.00 |  | 6.41 | 0
11 | COCc1nn(Cc2ccc(Cn3ccccc3=O)cc2)cc1C(=O)NCc1ccccc1C(F)F [Example 68, N-{[2-(difluoromethyl)phenyl]methyl}-3-(methoxymethyl)-1-({4-[(2-oxopyridin-1-yl)methyl]phenyl}methyl)pyrazole-4-carboxamide] | < 5.00 |  | 7.09 | 6
12 | COCc1nn(Cc2ccc(Cn3ccccc3=O)cc2)cc1C(=O)NCc1cccc(OC)c1C(F)F [Example 69, N-{[2-(difluoromethyl)-3-methoxyphenyl]methyl}-3-(methoxymethyl)-1-({4-[(2-oxopyridin-1-yl)methyl]phenyl}methyl)pyrazole-4-carboxamide] | < 4.40 |  | 7.77 | 0
13 | Nc1nn(Cc2ccc(Cn3ccccc3=O)cc2)cc1C(=O)NCc1c(F)cccc1C(F)(F)F [Example 70, 3-amino-N-{[2-fluoro-6-(trifluoromethyl)phenyl]methyl}-1-({4-[(2-oxopyridin-1-yl)methyl]phenyl}methyl)pyrazole-4-carboxamide] | < 5.00 |  | 7.57 | 6
14 | COCc1nn(Cc2ccc(Cn3ccccc3=O)cc2)cc1C(=O)NCc1cccc(OC(F)F)c1F [Example 90, N-{[3-(difluoromethoxy)-2-fluorophenyl]methyl}-3-(methoxymethyl)-1-({4-[(2-oxopyridin-1-yl)methyl]phenyl}methyl)pyrazole-4-carboxamide] | < 4.40 |  | 6.81 | 2

Other lines, results leading:

Row | pIC50 [1] | % Inhibition @ 40 μM (human FXIa) [2] [%] | pIC50 [3] | inhibition at 40 µM [2] [%] | Structure (SMILES)
15 | < 5.00 |  | 6.52 | 0 | COc1cccc(CNC(=O)c2cn(Cc3ccc(Cn4ccccc4=O)cc3)nc2NC(C)=O)c1F [Example 71, 3-acetamido-N-[(2-fluoro-3-methoxyphenyl)methyl]-1-({4-[(2-oxopyridin-1-yl)methyl]phenyl}methyl)pyrazole-4-carboxamide]
16 | < 5.00 |  | 5.18 | 1 | COc1cccc(CNC(=O)c2cn(Cc3ccc(Cn4ccccc4=O)cc3)nc2N(C)C(C)=O)c1F [Example 72, N-[(2-fluoro-3-methoxyphenyl)methyl]-3-(N-methylacetamido)-1-({4-[(2-oxopyridin-1-yl)methyl]phenyl}methyl)pyrazole-4-carboxamide]
17 | < 5.00 |  | 6.92 | 8 | COCc1nn(Cc2ccc(Cn3ccccc3=O)cc2)cc1C(=O)NCc1c(F)ccc(Cl)c1F [Example 73, N-[(3-chloro-2,6-difluorophenyl)methyl]-3-(methoxymethyl)-1-({4-[(2-oxopyridin-1-yl)methyl]phenyl}methyl)pyrazole-4-carboxamide]
18 | < 4.40 |  | 7.55 | 5 | COCc1nn(Cc2ccc(Cn3ccccc3=O)cc2)cc1C(=O)NCc1cc(Cl)ccc1C#N [Example 76, N-[(5-chloro-2-cyanophenyl)methyl]-3-(methoxymethyl)-1-({4-[(2-oxopyridin-1-yl)methyl]phenyl}methyl)pyrazole-4-carboxamide]
19 | < 5.00 |  | 6.21 | 0 | COCc1nn(Cc2ccc(Cn3ccccc3=O)cc2)cc1C(=O)NCc1cccc(OC)c1C(F)(F)F [Example 78, N-{[3-methoxy-2-(trifluoromethyl)phenyl]methyl}-3-(methoxymethyl)-1-({4-[(2-oxopyridin-1-yl)methyl]phenyl}methyl)pyrazole-4-carboxamide]
20 | < 4.40 |  | 7.83 | 2 | COCc1nn(Cc2ccc(Cn3ccccc3=O)cc2)cc1C(=O)NCc1cc(OC)ccc1C(F)(F)F [Example 79, N-{[5-methoxy-2-(trifluoromethyl)phenyl]methyl}-3-(methoxymethyl)-1-({4-[(2-oxopyridin-1-yl)methyl]phenyl}methyl)pyrazole-4-carboxamide]
21 | < 4.40 |  | 8.64 | 1 | COCc1nn(Cc2ccc(Cn3ccccc3=O)cc2)cc1C(=O)NCc1cc(OC)ccc1C(F)F [Example 81, N-{[2-(difluoromethyl)-5-methoxyphenyl]methyl}-3-(methoxymethyl)-1-({4-[(2-oxopyridin-1-yl)methyl]phenyl}methyl)pyrazole-4-carboxamide]
22 | < 4.40 |  | 7.10 | 46 | COCc1nn(Cc2ccc(Cn3ccccc3=O)cc2)cc1C(=O)NCc1c(F)cccc1C(N)=O [Example 85, N-[(2-carbamoyl-6-fluorophenyl)methyl]-3-(methoxymethyl)-1-({4-[(2-oxopyridin-1-yl)methyl]phenyl}methyl)pyrazole-4-carboxamide]
23 | < 5.00 |  | < 5.00 | 2 | COCc1nn(Cc2ccc(Cn3ccccc3=O)cc2)cc1C(=O)NCc1ccccc1C(=O)O [Example 87, 2-({[3-(methoxymethyl)-1-({4-[(2-oxopyridin-1-yl)methyl]phenyl}methyl)pyrazol-4-yl]formamido}methyl)benzoic acid]
24 | < 5.00 |  | 6.28 | 0 | COCc1nn(Cc2ccc(Cn3ccccc3=O)cc2)cc1C(=O)NCc1cccc(OC(F)F)c1 [Example 91, N-{[3-(difluoromethoxy)phenyl]methyl}-3-(methoxymethyl)-1-({4-[(2-oxopyridin-1-yl)methyl]phenyl}methyl)pyrazole-4-carboxamide]

Source: patent US10364238B2, “N-((het) arylmethyl)-heteroaryl-carboxamides compounds as plasma kallikrein inhibitors” (KALVISTA PHARMACEUTICALS LIMITED, priority 2014, dated 2019)
